Laboratory results as given in patent US10233187B2, “Fused bicyclic compounds for the treatment of disease” (AKARNA THERAPEUTICS, LTD., priority 2014, dated 2019).

Biological target: FXR (Homo sapiens (Human), UniProt Q96RI1)
Experiment: FXR Agonist Assay (Gaussia luciferase reporter)
Format: cell-based
Settings: cells incubated with compound at 37° C. for 20 hours; Gaussia luciferase luminescence; 10-point dose-response in duplicate
Protocol: Starting from 3.33 mM of compound in DMSO solution, a 10-point 3-fold serial dilution was made by diluting 5 μL of compound into 10 μL of DMSO. The serially diluted compound was then diluted 1:33 into DMEM. This medium was then diluted ten-fold into the culture medium with the cells (10 μL/well). All concentration points are assayed in duplicate. Plates were incubated at 37° C. for 20 hours. After the incubation, 20 μL of culture medium were removed from each well and mixed with 50 μL of assay solution (Pierce™ Gaussia Luciferase Flash Assay Kit). The luminescence was measured immediately after addition of the Luc substrate with an Envision microplate reader. The raw data was uploaded to CDD and dose-response curves were generated using the Levenberg-Marquardt algorithm integrated into CDD. A negative control DMSO is included on each plate and used to normalize the data with the CDD built-in normalization function.

Chain of FXR (Q96RI1 whole entry, species assumed): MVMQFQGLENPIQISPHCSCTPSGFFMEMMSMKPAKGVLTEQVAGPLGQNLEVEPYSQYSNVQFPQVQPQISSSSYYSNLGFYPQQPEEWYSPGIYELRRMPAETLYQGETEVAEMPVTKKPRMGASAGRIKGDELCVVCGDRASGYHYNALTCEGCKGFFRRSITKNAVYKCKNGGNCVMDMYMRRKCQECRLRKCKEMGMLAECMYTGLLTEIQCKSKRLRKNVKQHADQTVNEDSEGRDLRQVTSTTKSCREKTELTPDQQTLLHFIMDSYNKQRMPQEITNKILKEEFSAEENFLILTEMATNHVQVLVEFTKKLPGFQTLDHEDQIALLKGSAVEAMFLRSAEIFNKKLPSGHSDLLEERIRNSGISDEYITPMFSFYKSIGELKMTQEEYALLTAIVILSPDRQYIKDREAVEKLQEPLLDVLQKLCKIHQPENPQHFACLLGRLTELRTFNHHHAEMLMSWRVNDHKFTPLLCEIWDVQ

| SMILES | EC50 [nM] |
| --- | --- |
| CCCCc1n[nH]c2c1C(C)(C)CN(C(=O)C1CCCCC1)C=C2C(=O)OC(C)C [Example 30] | 200 to 1000 |
| CCCc1n[nH]c2c1C(C)(C)CN(C(=O)c1cccnc1)C=C2C(=O)OC(C)C [Example 18] | 200 to 1000 |
| CCOC(=O)C1=CN(C(=O)c2cccc(F)c2)CC(C)(C)c2cn[nH]c21 [Example 49] | 200 to 1000 |
| CCCCc1n[nH]c2c1C(C)(C)CN(C(=O)C1CCOCC1)C=C2C(=O)OC(C)C [Example 32] | 200 to 1000 |
| CCCc1n[nH]c2c1C(C)(C)CN(C(=O)c1ccncc1)C=C2C(=O)OC(C)C [Example 20] | 200 to 1000 |
| CCOC(=O)C1=CN(C(=O)c2cc3ccccc3s2)CC(C)(C)c2cn[nH]c21 [Example 44] | 200 to 1000 |
| CC(C)NC(=O)C1=CN(C(=O)c2ccc(F)c(F)c2)CC(C)(C)c2cn[nH]c21 [Example 45] | 200 to 1000 |
| CC(C)OC(=O)C1=CN(C(=O)N2CCN(C)CC2)CC(C)(C)c2c(C(F)(F)F)n[nH]c21 [Example 22] | 200 to 1000 |
| CC(C)OC(=O)C1=CN(C(=O)c2cccc(OCCN3CCOCC3)c2)CC(C)(C)c2c(C(F)(F)F)n[nH]c21 [Example 7] | 200 to 1000 |
| CC(C)OC(=O)C1=CN(C(=O)c2ccc(F)c(CN3CCOCC3)c2)CC(C)(C)c2c(C(F)(F)F)n[nH]c21 [Example 12] | < 200 |
| CCOC(=O)C1=CN(C(=O)C2CCCCC2)CC(C)(C)c2cn[nH]c21 [Example 48] | 1000 to 10000 |
| CC(C)OC(=O)C1=CN(C(=O)c2ccc(F)c(OCCN3CCOCC3)c2)CC(C)(C)c2c(C(F)(F)F)n[nH]c21 [Example 6] | 200 to 1000 |
| CC(C)OC(=O)C1=CN(C(=O)c2ccc(F)c(F)c2)CC(C)(C)c2cn[nH]c21 [Example 46] | 200 to 1000 |
| CCOC(=O)C1=CN(C(=O)c2ccc3c(c2)OC(F)(F)O3)CC(C)(C)c2cn[nH]c21 [Example 47] | 1000 to 10000 |
| CCCc1n[nH]c2c1C(C)(C)CN(C(=O)N1CCOCC1)C=C2C(=O)OC(C)C [Example 34] | 200 to 1000 |
| CCCc1n[nH]c2c1C(C)(C)CN(C(=O)c1ccccn1)C=C2C(=O)OC(C)C [Example 19] | 1000 to 10000 |
| CCCc1n[nH]c2c1C(C)(C)CN(C(=O)c1ccc(C(F)(F)F)nc1)C=C2C(=O)OC(C)C [Example 21] | 200 to 1000 |
| CC(C)OC(=O)C1=CN(C(=O)c2cccc(F)c2)CC(C)(C)c2c(C(F)(F)F)n[nH]c21 [Example 23] | < 200 |
| COCCc1n[nH]c2c1C(C)(C)CN(C(=O)c1ccc(F)c(F)c1)C=C2C(=O)OC(C)C [Example 28] | < 200 |
| CCCc1n[nH]c2c1C(C)(C)CN(C(=O)C1CCOCC1)C=C2C(=O)OC(C)C [Example 36] | 200 to 1000 |
| CC(C)OC(=O)C1=CN(C(=O)c2ccc(F)cc2F)CC(C)(C)c2c(C(F)(F)F)n[nH]c21 [Example 16] | < 200 |
| CCCc1n[nH]c2c1C(C)(C)CN(C(=O)c1ccc(F)c(F)c1)C=C2C(=O)OC(C)C [Example 38] | < 200 |
| CCOC(=O)C1=CN(C(=O)c2ccc(F)c(F)c2)CC(C)(C)c2cn[nH]c21 [Example 4, (E)-ethyl 6-(3,4-difluorobenzoyl)-4,4-dimethyl-1,4,5,6-tetrahydropyrazolo[3,4-d]azepine-8-carboxylate] | 200 to 1000 |

Further lines, results first:

| EC50 [nM] | SMILES |
| --- | --- |
| < 200 | CCOC(=O)C1=CN(C(=O)c2ccc(F)c(F)c2)CC(C)(C)c2c(C(C)C)n[nH]c21 [Example 5] |
| < 200 | CC(C)NC(=O)C1=CN(C(=O)c2ccc(OCCN3CCOCC3)cc2)CC(C)(C)c2c(C(F)(F)F)n[nH]c21 [Example 8] |
| < 200 | CC(C)Cc1n[nH]c2c1C(C)(C)CN(C(=O)c1cccc(F)c1)C=C2C(=O)OC(C)C [Example 25] |
| < 200 | CC(C)OC(=O)C1=CN(C(=O)c2ccc(OCCCN3CCOCC3)cc2)CC(C)(C)c2c(C(F)(F)F)n[nH]c21 [Example 9] |
| < 200 | CC(C)OC(=O)C1=CN(C(=O)c2ccc(F)cc2)CC(C)(C)c2c(C(F)(F)F)n[nH]c21 [Example 17] |
| < 200 | CC(C)OC(=O)C1=CN(C(=O)c2ccc(Cl)c(Cl)c2)CC(C)(C)c2cn[nH]c21 [Example 42] |
| < 200 | CCCCc1n[nH]c2c1C(C)(C)CN(C(=O)c1ccc(F)c(F)c1)C=C2C(=O)OCC [Example 39] |
| < 200 | CCCc1n[nH]c2c1C(C)(C)CN(C(=O)c1cccc(F)c1)C=C2C(=O)OC(C)C [Example 37] |
| < 200 | CCCCc1n[nH]c2c1C(C)(C)CN(C(=O)N1CCOCC1)C=C2C(=O)OC(C)C [Example 29] |
| < 200 | CCOC(=O)C1=CN(C(=O)c2ccc3ccccc3c2)CC(C)(C)c2cn[nH]c21 [Example 43] |
| < 200 | CCCCc1n[nH]c2c1C(C)(C)CN(C(=O)c1cccc(F)c1)C=C2C(=O)OC(C)C [Example 33] |
| < 200 | CCOC(=O)C1=CN(C(=O)c2ccc(F)c(F)c2)CC(C)(C)c2c(C)n[nH]c21 [Example 2, (E)-ethyl 6-(3,4-difluorobenzoyl)-3,4,4-trimethyl-1,4,5,6-tetrahydropyrazolo[3,4-d]azepine-8-carboxylate] |
| < 200 | CC(C)Cc1n[nH]c2c1C(C)(C)CN(C(=O)c1ccc(F)c(F)c1)C=C2C(=O)OC(C)C [Example 26] |
| < 200 | CC(C)OC(=O)C1=CN(C(=O)c2ccc(F)c(F)c2)CC(C)(C)c2c(C(F)(F)F)n[nH]c21 [Example 24] |
| < 200 | CC(C)OC(=O)C1=CN(C(=O)c2ccc(OCCN3CCOCC3)cc2)CC(C)(C)c2c(C(F)(F)F)n[nH]c21 [Example 13] |
| < 200 | CC(=O)c1n[nH]c2c1C(C)(C)CN(C(=O)c1ccc(F)c(F)c1)C=C2C(=O)OC(C)C [Example 10] |
| < 200 | CCOC(=O)C1=CN(C(=O)c2ccc(F)c(F)c2)CC(C)(C)c2c(CC)n[nH]c21 [Example 41] |
| < 200 | CCCc1n[nH]c2c1C(C)(C)CN(C(=O)c1ccc(F)c(F)c1)C=C2C(=O)OCC [Example 40] |
| < 200 | CCCc1n[nH]c2c1C(C)(C)CN(C(=O)C1CCCCC1)C=C2C(=O)OC(C)C [Example 35] |
| < 200 | CCOC(=O)C1=CN(C(=O)c2ccc(F)c(F)c2)CC(C)(C)c2c(-c3ccc(F)cc3)n[nH]c21 [Example 3, (E)-ethyl 6-(3,4-difluorobenzoyl)-3-(4-fluorophenyl)-4,4-dimethyl-1,4,5,6-tetrahydropyrazolo[3,4-d]azepine-8-carboxylate] |
| < 200 | CC(C)OC(=O)C1=CN(C(=O)c2cc(F)c(F)cc2Cl)CC(C)(C)c2c(C(F)(F)F)n[nH]c21 [Example 11] |
| < 200 | CCCCc1n[nH]c2c1C(C)(C)CN(C(=O)c1ccc(F)c(F)c1)C=C2C(=O)OC(C)C [Example 31] |
| < 200 | CC(C)NC(=O)C1=CN(C(=O)c2ccc(F)c(F)c2)CC(C)(C)c2c(C(F)(F)F)n[nH]c21 [Example 14] |
| < 200 | COCCc1n[nH]c2c1C(C)(C)CN(C(=O)c1cccc(F)c1)C=C2C(=O)OC(C)C [Example 27] |
